“And” between values parts separate entries of the source, which are not always exact repeats. Equal entries are not always repeated.
Columns and labels:
[1] = Phase 1 single ascending dose study of TS-121 capsules; type: in vivo, human
Method: The plasma concentration–time profiles of THY1773 were analyzed by a non‐compartmental analysis with PK analysis software Phoenix WinNonlin® (version 6.1; Certara), and the PK parameters were calculated. The fraction excreted in urine was calculated by dividing the amount of THY1773 excreted in urine by the administered dose.
A first‐in‐human, randomized, double‐blind, placebo‐controlled, adaptive, single‐ascending dose study was conducted to evaluate the safety, tolerability, and PK of single oral doses of TS‐121 capsules in the United States. This study was conducted in accordance with the ethical principles of the Declaration of Helsinki, International Council for Harmonization Good Clinical Practice Guidelines, and the United States Food and Drug Administration Code of Federal Regulations. The study was approved by an institutional ethical review board. All subjects provided written informed consent before participating in the study. Sixty‐eight healthy male or female volunteers were enrolled and received a single oral dose of either TS‐121 capsules (0.5, 2.5, 4, 8, 15, 30, or 50 mg as THY1773/day) or placebo in a 3:1 ratio in a fasted state.
Blood samples were collected at predose and 0.25, 0.5, 0.75, 1, 1.5, 2, 3, 4, 6, 8, 10, 12, 24, 36, and 48 h postdose. Urine samples were collected before dosing and at the following time intervals after dosing: 0–6, 6–12, 12–24, 24–36, and 36–48 h. THY1773 plasma and urine concentrations were determined by validated LC‐MS/MS methods. PK parameters were evaluated following the method as described in Section 2.5 PK analysis.

[2] = Blood-to-plasma ratio in dog whole blood; type: in vitro ADME; details: 1 μmol/L
Method: The blood‐to‐plasma ratios of THY1773 were analyzed using pooled fresh whole blood (anticoagulant: EDTA‐2K) and control plasma separated from fresh whole blood in parallel from rats, dogs, and humans. Whole blood and control plasma containing 1 μmol/L THY1773 were incubated at 37°C for 30 min in a shaking water bath. The incubated whole blood was centrifuged at 2000 × g for 10 min at 4°C to obtain plasma. An aliquot of each plasma sample (i.e., isolated plasma from incubated whole blood and control plasma) was mixed with 8 volumes of acetonitrile/methanol (9:1, vol/vol) containing the IS. After centrifugation at 3974 × g for 10 min at 4°C, the supernatant was subjected to liquid chromatography/tandem mass spectrometry (LC‐MS/MS) analysis. The blood‐to‐plasma ratio was calculated by dividing the […].

CYP2D6 = biological target: T1, CYP2D6 (Homo sapiens, UniProt P10635); assay: Reaction phenotyping in HLMs with quinidine; type: in vitro ADME
T1 construct: THY1773 (500 nmol/L) was incubated with pooled HLMs (0.5 mg protein/ml); tissue Sekisui XenoTech, LLC; host or cells: pooled human liver microsomes (50 donors)
Method: Reaction phenotyping using cDNA expressed recombinant human CYP isoforms, CYP1A2, CYP2B6, CYP2C8, CYP2C9, CYP2C19, CYP2D6, and CYP3A4, was conducted. Each recombinant enzyme (100 pmol/ml) in potassium phosphate buffer (pH 7.4; 100 mmol/L for CYP3A4, 50 mmol/L for the others) was preincubated with [^3H]THY1773 (10 μmol/L) at 37°C for 5 min. The reactions were initiated by the addition of NADPH‐generating system (1 mmol/L NADP^+, 5 mmol/L G‐6‐P, 1 unit/ml G‐6‐PDH, and 5 mmol/L MgCl2) and incubated for 0 or 60 min. The reactions were terminated by the addition of an equal volume of acetonitrile/methanol (9:1, vol/vol), followed by centrifugation at 1650 × g for 10 min at 4°C. An aliquot of the supernatant was subjected to an Agilent 1200 HPLC system (Agilent Technologies, Inc.) equipped with a radiochemical flow detector (Radiomatic 625TR; Perkin Elmer, Inc.), and formation of metabolites was evaluated. Reaction phenotyping study was also conducted using HLMs and selective chemical inhibitors for CYP2D6 and CYP3A, which were assumed to have significant roles in THY1773 metabolism from recombinant metabolic stability. Quinidine (1 μmol/L) for CYP2D6 and ketoconazole (1 μmol/L) for CYP3A were used as selective inhibitors. THY1773 (500 nmol/L) was incubated with pooled HLMs (0.5 mg protein/ml) in potassium phosphate buffer (100 mmol/L, pH 7.4) in the absence or presence of the selective inhibitors. The reactions were initiated by the addition of NADPH generating system (1.3 mmol/L β‐NADP^+, 3.3 mmol/L G‐6‐P, 3.3 mmol/L MgCl2, and 0.4 units/ml G‐6‐PDH), and incubated at 37°C for 30 min. The reactions were terminated by the addition of two volumes of acetonitrile/methanol (9:1, vol/vol) containing the IS. […] The CLint was calculated by the method as described previously under metabolic stability in animal liver microsomes, and the fraction metabolized (fm) was calculated by Equation (1): (1) fm=1−(CLint, with inh/CLint) where CLint is intrinsic clearance without specific inhibitor and CLint,with inh is intrinsic clearance in the presence of specific inhibitor.

[3] = human, average over dose range 0.5 to 50 mg
[4] = human, single oral 30 mg, fasted, mean

T1 sequence (P10635 whole entry): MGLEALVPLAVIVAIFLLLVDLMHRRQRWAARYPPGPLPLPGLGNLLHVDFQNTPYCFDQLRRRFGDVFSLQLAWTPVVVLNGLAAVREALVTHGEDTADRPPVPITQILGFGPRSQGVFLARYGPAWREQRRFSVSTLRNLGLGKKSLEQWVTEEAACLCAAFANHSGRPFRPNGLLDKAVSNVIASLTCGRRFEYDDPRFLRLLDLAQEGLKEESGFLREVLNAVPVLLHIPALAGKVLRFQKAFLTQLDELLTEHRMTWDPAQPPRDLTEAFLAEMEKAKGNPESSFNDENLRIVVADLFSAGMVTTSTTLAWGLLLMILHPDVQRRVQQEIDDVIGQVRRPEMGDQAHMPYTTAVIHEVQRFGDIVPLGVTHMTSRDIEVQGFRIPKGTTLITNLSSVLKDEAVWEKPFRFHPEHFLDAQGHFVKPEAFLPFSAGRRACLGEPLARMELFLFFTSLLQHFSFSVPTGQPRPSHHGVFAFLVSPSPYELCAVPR

SMILES: CC(C)NC(=O)Cn1c(-c2cccc(Cl)c2)nn(-c2ccc(CCN3CCOCC3)cc2)c1=O [THY1773]
- Observed CLrenal compared with predicted value ([1]; human): lower than the predicted value
- Observed oral blood CL as share of hepatic blood flow ([1]; human): 2.6 % of the hepatic blood flow
- Apparent volume of distribution during the terminal phase [1, 3]: 40.6 L
- Oral CLtotal [1, 3]: 1.32 L/h
- Dose linearity of PK ([1]; human, dose range 0.5–50 mg): linear PK
- AUC0‐∞ [1, 4]: 21340 ng·h/mL
- CLpo [1, 4]: 1.52 L/h
- Cmax [1, 4]: 949 ng/mL
- Vdz/F [1, 4]: 43.6 L
- tmax ([1]; human, single oral 30 mg, fasted, median): 1.3 h and 1.27 h
- Urinary excretion of unchanged drug ([1]; human, within 48 h post oral dosing, average over dose range): 4.2%
- Observed human CLtotal/F ([1]; oral, phase 1 study): 0.287 mL/min/kg
- Observed human Vdz/F ([1]; oral, phase 1 study): 0.528 L/kg
- Blood-to-plasma ratio [2]: 0.846
- CLint (CYP2D6; HLMs, with quinidine 1 μmol/L): 10.2 ± 0.509 µL/min/mg
- fm,CYP2D6 (CYP2D6; PBPK input, experimental data): 0.089
- fm (fraction metabolized) (CYP2D6; by CYP2D6, HLMs, quinidine 1 μmol/L): 0.0893

Source: publication PMC8252455, “Prediction of a clinically effective dose of THY1773, a novel V 1B receptor antagonist, based on preclinical data” (Biopharmaceutics & Drug Disposition, 2021)
